“And” between values parts separate entries of the source, which are not always exact repeats. Identical values can stand only once.
What was measured:
[1] = Plasma concentration of mivorilaner in dogs fed medicated daily feed (Example 6); type: in vivo; set-up: unit not given here
Text: Methods: A pool of dogs are to be preliminarily infested with ˜50 unfed adult R. sanguineus ticks in order to produce dogs that can suitably sustain a reliable infestation rate, defined as approximately 25% of attached ticks being live at the end of a 72-hour period. The 24 dogs with the highest live attached tick counts are to be selected for inclusion in the study. The 18 dogs with the highest live attached tick counts are to be randomly assigned to one of a control group and 2 treatment groups. The 6 dogs with the next highest live attached tick counts are to be assigned to a third treatment group.
The dogs are to be housed individually during the study period and are to have ad libitum access to water.
Each dog in a treatment group (test groups 2-4) is to receive a medicated daily feed from study days 0-49. The medicated daily feed is to be offered to the dogs for 1 hour on each of days 0-49 according to test groups listed in TABLE 7.
Sample results of the average plasma concentration of isoxazoline in a canine's blood at different dosage levels are shown in TABLE 8 and FIG. 9 for mivorilaner.

[2] = Plasma concentration of mivorilaner in dogs given an oral liquid formulation daily (Example 1); type: in vivo; conditions: for Mivorilaner Concentration, Average: average of 6 canines, days 0-29; for Mivorilaner Concentration: individual canines, days 0-29, 0.75 mg/kg/day
Text: Methods: A pool of 14 dogs are to be preliminarily infested with ˜100 unfed adult C. felis in order to produce dogs that can suitably sustain a reliable infestation rate, defined as approximately 50% fleas being live at the end of a 48-hour period. The 12 dogs with the highest live flea counts are to be selected for inclusion in the study. The dogs are to be divided into a control group and a treatment group.
The dogs are to be housed individually during the study period and are to be fed a commercial dry dog food ration with ad libitum access to water.
Each dog in the treatment group is to receive by mouth a liquid formulation of isoxazoline. The dosage of 0.75 mg/kg is to be administered to the dogs on each of days 0-29.
Dogs in the control group are not to receive isoxazoline or any other tick control treatment. Each dog in the treatment group is to be offered its daily ration (dry food) and the individual doses of liquid formulation are to be administered after the individual dog has eaten at least 25% of its total daily ration. After receiving the dose of isoxazoline, the dogs are to be allowed to continue eating. This mimics incorporating the isoxazoline in feed. Each dog in the treatment group and the control group is to be experimentally infested with 50 adult ticks on test days 5, 12, 19, 28 and 35. Comb counts for live and moribund attached ticks are to be conducted on days 7, 14, 21, 30 and 37.

In the case of `O=C(CNC(=O)c1sc(C2=NO[C@@](c3cc(Cl)c(F)c(Cl)c3)(C(F)(F)F)C2)c2c1CCC2)NCC(F)F` [Mivorilaner, 3-[(5S)-5-(3,5-dichloro-4-fluorophenyl)-5-(trifluoromethyl)-4,5-dihydroisoxazol-3-yl]-N-[2-[(2,2-difluoroethyl)amino]-2-oxoethyl]-5,6-dihydro-4H-cyclopenta[c]thiophene-1-carboxamide], the “average plasma concentration of isoxazoline in a canine's blood” value (shortened to “average plasma concentration”) ([1]; Group 2-106 mg/kg feed (anticipated 1 mg/kg daily), Time 1 hr) is reported as 49.98, the “average plasma concentration” value ([1]; Group 2-106 mg/kg feed (anticipated 1 mg/kg daily), Time 3 hr) is reported as 292.00 and the “average plasma concentration” value ([1]; Group 2-106 mg/kg feed (anticipated 1 mg/kg daily), Time 6 hr) is reported as 539.00. The “average plasma concentration” value ([1]; Group 2-106 mg/kg feed (anticipated 1 mg/kg daily), Time 10 hr) was 505.40, the “average plasma concentration” value ([1]; Group 2-106 mg/kg feed (anticipated 1 mg/kg daily), Time 24 hr) was 458.60 and the “average plasma concentration” value ([1]; Group 2-106 mg/kg feed (anticipated 1 mg/kg daily), Time 48 hr) was 771.83. For the same compound, the “average plasma concentration” value ([1]; Group 2-106 mg/kg feed (anticipated 1 mg/kg daily), Time 96 hr) was 1570.50, the “average plasma concentration” value ([1]; Group 2-106 mg/kg feed (anticipated 1 mg/kg daily), Time 168 hr) was 2156.67 and the “average plasma concentration” value ([1]; Group 2-106 mg/kg feed (anticipated 1 mg/kg daily), Time 240 hr) was 3003.33. The “average plasma concentration” value ([1]; Group 2-106 mg/kg feed (anticipated 1 mg/kg daily), Time 336 hr) was 3290.00, the “average plasma concentration” value ([1]; Group 3-106 mg/kg feed (anticipated 1 mg/kg daily), Time 1 hr) was 40.41 and the “average plasma concentration” value ([1]; Group 3-106 mg/kg feed (anticipated 1 mg/kg daily), Time 3 hr) was 264.83. The “average plasma concentration” value ([1]; Group 3-106 mg/kg feed (anticipated 1 mg/kg daily), Time 6 hr) was 467.50, the “average plasma concentration” value ([1]; Group 3-106 mg/kg feed (anticipated 1 mg/kg daily), Time 10 hr) was 419.17 and the “average plasma concentration” value ([1]; Group 3-106 mg/kg feed (anticipated 1 mg/kg daily), Time 24 hr) was 435.17. The “average plasma concentration” value ([1]; Group 3-106 mg/kg feed (anticipated 1 mg/kg daily), Time 48 hr) was 781.83, the “average plasma concentration” value ([1]; Group 3-106 mg/kg feed (anticipated 1 mg/kg daily), Time 96 hr) was 1596.67 and the “average plasma concentration” value ([1]; Group 3-106 mg/kg feed (anticipated 1 mg/kg daily), Time 168 hr) was 2406.67. The “average plasma concentration” value ([1]; Group 3-106 mg/kg feed (anticipated 1 mg/kg daily), Time 240 hr) was 3026.67, the “average plasma concentration” value ([1]; Group 3-106 mg/kg feed (anticipated 1 mg/kg daily), Time 336 hr) was 3516.67 and the “average plasma concentration” value ([1]; Group 4-318 mg/kg feed (anticipated 3 mg/kg daily), Time 1 hr) was 143.75. The “average plasma concentration” value ([1]; Group 4-318 mg/kg feed (anticipated 3 mg/kg daily), Time 3 hr) was 846.50, the “average plasma concentration” value ([1]; Group 4-318 mg/kg feed (anticipated 3 mg/kg daily), Time 6 hr) was 1265.67 and the “average plasma concentration” value ([1]; Group 4-318 mg/kg feed (anticipated 3 mg/kg daily), Time 10 hr) was 1198.17. The “average plasma concentration” value ([1]; Group 4-318 mg/kg feed (anticipated 3 mg/kg daily), Time 24 hr) was 1021.17, the “average plasma concentration” value ([1]; Group 4-318 mg/kg feed (anticipated 3 mg/kg daily), Time 48 hr) was 2011.67 and the “average plasma concentration” value ([1]; Group 4-318 mg/kg feed (anticipated 3 mg/kg daily), Time 96 hr) was 3928.33. For the same compound, the “average plasma concentration” value ([1]; Group 4-318 mg/kg feed (anticipated 3 mg/kg daily), Time 168 hr) was 6461.67, the “average plasma concentration” value ([1]; Group 4-318 mg/kg feed (anticipated 3 mg/kg daily), Time 240 hr) was 8696.67 and the “average plasma concentration” value ([1]; Group 4-318 mg/kg feed (anticipated 3 mg/kg daily), Time 336 hr) was 11600.00. For the same compound, the “Mivorilaner Concentration, Average” value ([2]; Day 3, 0.75 mg/kg/day oral) was 674 ng/mL, the “Mivorilaner Concentration, Average” value ([2]; Day 7, 0.75 mg/kg/day oral) was 1449 ng/mL and the “Mivorilaner Concentration, Average” value ([2]; Day 14, 0.75 mg/kg/day oral) was 2105 ng/mL. The “Mivorilaner Concentration, Average” value ([2]; Day 21, 0.75 mg/kg/day oral) was 2725 ng/mL, the “Mivorilaner Concentration, Average” value ([2]; Day 30, 0.75 mg/kg/day oral) was 2628 ng/mL and the “Mivorilaner Concentration, Average” value ([2]; Day 37, 0.75 mg/kg/day oral) was 2017 ng/mL. The “Mivorilaner Concentration” value ([2]; Day 3, 0.75 mg/kg/day oral) was 556 ng/mL and 648 ng/mL and 579 ng/mL and 660 ng/mL, the “Mivorilaner Concentration” value ([2]; Day 7, 0.75 mg/kg/day oral) was 1330 ng/mL and 1620 ng/mL and 994 ng/mL and 1470 ng/mL and the “Mivorilaner Concentration” value ([2]; Day 14, 0.75 mg/kg/day oral) was 1990 ng/mL and 2530 ng/mL and 1560 ng/mL and 2120 ng/mL. The “Mivorilaner Concentration” value ([2]; Day 21, 0.75 mg/kg/day oral) was 2750 ng/mL and 2820 ng/mL and 2450 ng/mL and 2720 ng/mL and the “Mivorilaner Concentration” value ([2]; Day 30, 0.75 mg/kg/day oral) was 2570 ng/mL and 2890 ng/mL and 2320 ng/mL and 2600 ng/mL.
